Laboratory results taken from the supplement of paper PMC3621838.
± gives the standard deviation of the averaged measurements.

Test system: HEK293 NF-kB-luciferase reporter cells
Assay: NF-kB luciferase reporter activity, robust Z-score vs plate median (robust Z-score (log luminescence)); higher = stronger NF-kB reporter activation
Conditions: TNF treatment time 8.5 h, transfection time 72 h
Method: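 Primary screen of an Ambion Pre-miR miRNA mimic library (miRBase v8.0, 1.6 pmol/well, 384-well, duplicate) reverse-transfected into HEK293 cells stably expressing a 5x NF-kB firefly luciferase reporter. After 72 h the cells were treated with vehicle or TNF (40 ng/mL) for 8.5 h and luminescence was read (BriteLite). Raw luminescence was log-transformed and converted to a robust Z-score per plate: (x - plate median)/plate MAD. Sequence given is the mature miRNA strand of the double-stranded mimic.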

UCCUGUACUGAGCUGCCCCGAG
NF-kB luciferase reporter activity (TNF 0 ng/mL): 0.874 ± 0.074
NF-kB luciferase reporter activity (TNF 40 ng/mL): 1.15 ± 0.17

AUGCACCUGGGCAAGGAUUCUG
NF-kB luciferase reporter activity (TNF 0 ng/mL): -0.197 ± 0.13
NF-kB luciferase reporter activity (TNF 40 ng/mL): 1.14 ± 0.15

CUCCAGAGGGAUGCACUUUCU
NF-kB luciferase reporter activity (TNF 0 ng/mL): -1.38 ± 0.64
NF-kB luciferase reporter activity (TNF 40 ng/mL): -1.09 ± 0.051

UCAAGAGCAAUAACGAAAAAUGU
NF-kB luciferase reporter activity (TNF 0 ng/mL): 0.225 ± 0.32
NF-kB luciferase reporter activity (TNF 40 ng/mL): 1.08 ± 0.015

CCCAGUGUUUAGACUAUCUGUUC
NF-kB luciferase reporter activity (TNF 0 ng/mL): -0.547 ± 0.91
NF-kB luciferase reporter activity (TNF 40 ng/mL): -0.613 ± 0.27

AAAAUGGUUCCCUUUAGAGUGUU
NF-kB luciferase reporter activity (TNF 0 ng/mL): -1.7 ± 0.2
NF-kB luciferase reporter activity (TNF 40 ng/mL): -2.14 ± 0.057

CAUCUGGAGGUAAGAAGCACUUU
NF-kB luciferase reporter activity (TNF 0 ng/mL): 0.889 ± 0.59
NF-kB luciferase reporter activity (TNF 40 ng/mL): -1.17 ± 0.072

UAGGUAGUUUCCUGUUGUUGG
NF-kB luciferase reporter activity (TNF 0 ng/mL): -1.2 ± 0.5
NF-kB luciferase reporter activity (TNF 40 ng/mL): -0.972 ± 0.18

UCUGGCUCCGUGUCUUCACUCC
NF-kB luciferase reporter activity (TNF 0 ng/mL): 0.957 ± 0.014
NF-kB luciferase reporter activity (TNF 40 ng/mL): -1.34 ± 0.046

UCGGGGAUCAUCAUGUCACGAG
NF-kB luciferase reporter activity (TNF 0 ng/mL): 1.13 ± 0.071
NF-kB luciferase reporter activity (TNF 40 ng/mL): 0.339 ± 0.01

GCCUGCUGGGGUGGAACCUGG
NF-kB luciferase reporter activity (TNF 0 ng/mL): -0.469 ± 0.36
NF-kB luciferase reporter activity (TNF 40 ng/mL): 0.451 ± 0.051

AAAGUGCCUCCUUUUAGAGUGU
NF-kB luciferase reporter activity (TNF 0 ng/mL): -1.14 ± 0.07
NF-kB luciferase reporter activity (TNF 40 ng/mL): -0.561 ± 0.048

CACCCGUAGAACCGACCUUGCG
NF-kB luciferase reporter activity (TNF 0 ng/mL): -0.634 ± 0.41
NF-kB luciferase reporter activity (TNF 40 ng/mL): 0.175 ± 0.09

CAAAGCGCUUCUCUUUAGAGUG
NF-kB luciferase reporter activity (TNF 0 ng/mL): -0.207 ± 0.29
NF-kB luciferase reporter activity (TNF 40 ng/mL): 0.143 ± 0.13

CCACACCGUAUCUGACACUUU
NF-kB luciferase reporter activity (TNF 0 ng/mL): -0.604 ± 0.17
NF-kB luciferase reporter activity (TNF 40 ng/mL): 0.0155 ± 0.04

UCAGUGCAUGACAGAACUUGGG
NF-kB luciferase reporter activity (TNF 0 ng/mL): -0.378 ± 0.05
NF-kB luciferase reporter activity (TNF 40 ng/mL): 0.0929 ± 0.021

CUCUAGAGGGAAGCACUUUCU
NF-kB luciferase reporter activity (TNF 0 ng/mL): 0.466 ± 0.17
NF-kB luciferase reporter activity (TNF 40 ng/mL): 0.664 ± 0.074

UGUGACAGAUUGAUAACUGAAA
NF-kB luciferase reporter activity (TNF 0 ng/mL): -0.287 ± 0.28
NF-kB luciferase reporter activity (TNF 40 ng/mL): -2.016 ± 0.016

UGGUUUACCGUCCCACAUACAU
NF-kB luciferase reporter activity (TNF 0 ng/mL): -0.822 ± 0.38
NF-kB luciferase reporter activity (TNF 40 ng/mL): 0.367 ± 0.064

UAACAGUCUCCAGUCACGGCC
NF-kB luciferase reporter activity (TNF 0 ng/mL): -0.0296 ± 0.44
NF-kB luciferase reporter activity (TNF 40 ng/mL): -0.939 ± 0.1

UCUACAAAGGGAAGCCCUUUCUG
NF-kB luciferase reporter activity (TNF 0 ng/mL): -0.631 ± 0.31
NF-kB luciferase reporter activity (TNF 40 ng/mL): 0.879 ± 0.11

UAACACUGUCUGGUAAAGAUGG
NF-kB luciferase reporter activity (TNF 0 ng/mL): 0.999 ± 0.35
NF-kB luciferase reporter activity (TNF 40 ng/mL): 1.415 ± 0.012

ACUUCACCUGGUCCACUAGCCGU
NF-kB luciferase reporter activity (TNF 0 ng/mL): 0.123 ± 0.3
NF-kB luciferase reporter activity (TNF 40 ng/mL): 0.86 ± 0.097

CUGGACUUAGGGUCAGAAGGCC
NF-kB luciferase reporter activity (TNF 0 ng/mL): 0.0764 ± 0.11
NF-kB luciferase reporter activity (TNF 40 ng/mL): 0.411 ± 0.022

GAAGGCGCUUCCCUUUGGAGU
NF-kB luciferase reporter activity (TNF 0 ng/mL): -0.702 ± 0.69
NF-kB luciferase reporter activity (TNF 40 ng/mL): -0.567 ± 0.046

UUUAACAUGGGGGUACCUGCUG
NF-kB luciferase reporter activity (TNF 0 ng/mL): -0.207 ± 0.29
NF-kB luciferase reporter activity (TNF 40 ng/mL): 0.504 ± 0.055
